Data taken from US5559113A, “Imidazole compounds and their therapeutic applications” (Institut National de la Sante et de la Recherche Medicale, priority 1992, dated 1996).

molecular target: T1, H3 receptors of the brain of the rat (Rattus norvegicus, UniProt Q9QYN8); experiment: Antagonism of the inhibition by exogenous histamine of release in rat cerebral cortex sections (central H3 receptors); format: cell-based; conditions: not given
T1 construct: This method requires rat cerebral cortex sections; from tissue; host or cells: rat cerebral cortex sections
Excerpt: This method requires rat cerebral cortex sections and has made possible the pharmacological characterization of the H3 receptors (Nature, 1987, 327, 117-123).

T1 sequence (Q9QYN8 whole entry): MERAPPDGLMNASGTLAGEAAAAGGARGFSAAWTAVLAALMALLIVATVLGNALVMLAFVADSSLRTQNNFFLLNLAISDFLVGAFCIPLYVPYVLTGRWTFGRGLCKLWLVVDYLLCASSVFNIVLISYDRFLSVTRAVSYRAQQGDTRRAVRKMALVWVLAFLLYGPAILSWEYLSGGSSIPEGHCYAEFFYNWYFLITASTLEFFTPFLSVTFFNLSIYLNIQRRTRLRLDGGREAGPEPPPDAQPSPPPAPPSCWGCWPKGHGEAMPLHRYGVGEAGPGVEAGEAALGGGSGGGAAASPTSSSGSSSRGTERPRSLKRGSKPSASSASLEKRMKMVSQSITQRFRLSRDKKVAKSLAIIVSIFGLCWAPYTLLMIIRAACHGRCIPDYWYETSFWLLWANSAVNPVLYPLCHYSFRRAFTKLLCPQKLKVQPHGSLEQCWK

Compared with N#CN=C(NCCCc1cnc[nH]1)NCC1CCCCC1 [Example 51, N-Cyano-N'-[3-(1H-imidazol-4-yl)propyl]-N"-cyclohexylmethylguanidine], O=C(CCCC1CCCCC1)NCCCc1c[nH]cn1 [Example 7, N-(3-(1H-Imidazol-4-yl)propyl)-4-cyclohexylbutanamide] is 3-fold higher in Ki: 20 nM for the first, 59 nM for the second. The first binds more tightly here.

Compared with c1ccc2sc(NCCc3c[nH]cn3)nc2c1 [Example 91, 2-{[2-(1H-Imidazol-4-yl)ethyl]amino}benzothiazole], O=[N+]([O-])c1ccc(NCCc2c[nH]cn2)nc1 [Example 94, 2-{[2-(1H-Imidazol-4-yl)ethyl]amino}-5-nitropyridine] is 10-fold lower in Ki: 380 nM for the first, 38 nM for the second.

Going from O=C(CCC1CCCC1)NC/C=C/c1c[nH]cn1 [Example 19, (E)-N-(3-(1H-Imidazol-4-yl)allyl)-3-cyclopentylpropanamide] to S=C(CCC1CCCC1)NCCCc1c[nH]cn1 [Example 22, N-(3-(1H-Imidazol-4-yl)propyl)-3-cyclopentylpropanethioamide], the Ki falls from 42 nM to 11 nM (3.8-fold). The second binds more tightly here.

Clc1ccc(COCCCc2c[nH]cn2)cc1 [Example 86, (4-Chlorophenyl)methyl 3-(1H-imidazol-4-yl)propyl ether] and Clc1ccc(CCCOCCCc2c[nH]cn2)cc1 [Example 85, 3-(4-Chlorophenyl)propyl 3-(1H-imidazol-4-yl)propyl ether] are within 1.5-fold of each other in Ki: 18 nM for the first, 13 ± 4 nM for the second.

Compared with Fc1ccc(CCCOCCCc2c[nH]cn2)cc1 [Example 88, 3-(4-Fluorophenyl)propyl 3-(1H-imidazol-4-yl)propyl ether], Brc1ccc(CCCOCCCc2c[nH]cn2)cc1 [Example 38, 3-(4-Bromophenyl)propyl 3-(1H-imidazol-4-yl)propyl ether] is 2.1-fold higher in Ki: 7 ± 2 nM for the first, 15 ± 4 nM for the second. The first binds more tightly here.

c1ccc(CCCOCCCc2c[nH]cn2)cc1 [Example 45, 3-Phenylpropyl 3-(1H-imidazol-4-yl)propyl ether] and O=C(CCCc1ccccc1)CCCc1c[nH]cn1 [Example 49, 1-(1H-Imidazol-4-yl)-7-phenylheptan-4-one] are within error of each other in Ki: 17 ± 3 nM for the first, 20 nM for the second.

CC(CC(=O)NCCCc1c[nH]cn1)c1ccccc1 (racemic) [Example 15, (R,S)-(+)-N-(3-(1H-Imidazol-4-yl)propyl)-3-phenylbutanamide] and O=C(CCc1ccccc1)NCCCc1c[nH]cn1 [Example 2, N-(3-(1H-Imidazol-4-yl)propyl)-3-phenylpropanamide] are within 1.5-fold of each other in Ki: 35 nM for the first, 49 nM for the second.

Molecule O=C(CCC1CCCC1)OCCCc1c[nH]cn1 [Example 24, 3-(1H-Imidazol-4-yl)propyl ester of 3-cyclopentylpropanoic acid] has a Ki of 3 nM.

same assay, conditions: read-out: Apparent dissociation constant (Ki) as antagonist of histamine on the H3 receptors of the brain of the rat; rat cerebral cortex sections; exogenous histamine 1 μM; Ki calculated from IC50 according to Cheng and Prusoff

First: O=C(NCC1CC1)OCCCc1c[nH]cn1 [Example 57, 3-(1H-Imidazol-4-yl)propyl N-(cyclopropylmethyl)carbamate]
Second: O=C(Nc1ccccc1)OCCCc1c[nH]cn1 [Example 61, 3-(1H-Imidazol-4-yl)propyl N-phenylcarbamate]
The Ki of the first is 3.7-fold higher: 52 nM for the first, 14 ± 8 nM for the second.

First: c1ccc2cc(OCCc3c[nH]cn3)ccc2c1 [Example 125, 4-[2-(2-Naphthyloxy)ethyl]-1H-imidazole]
Second: N#Cc1ccc(OCCc2c[nH]cn2)cc1 [Example 112, 4-[2-(4-Cyanophenoxy)ethyl]-1H-imidazole]
The Ki of the first is 10-fold higher: 90 ± 27 nM for the first, 9 ± 5 nM for the second.

N#Cc1ccc(OCCCc2c[nH]cn2)cc1 [Example 130, 4-[3-(4-Cyanophenoxy)propyl]-1H-imidazole] and FC(F)(F)c1ccc(OCCCc2c[nH]cn2)cc1 [Example 131, 4-[3-(4-Trifluoromethylphenoxy)propyl]-1H-imidazole] are within error of each other in Ki: 12 ± 3 nM for the first, 14 ± 6 nM for the second.

Going from O=C(NC(=O)c1ccccc1)OCCCc1c[nH]cn1 [Example 55, 3-(1H-Imidazol-4-yl)propyl N-benzoylcarbamate] to CN(Cc1ccccc1)C(=O)OCCCc1c[nH]cn1 [Example 83, 3-(1H-Imidazol-4-yl)propyl N-benzyl-N-methylcarbamate], the Ki falls from 95 nM to 42 nM (2.3-fold).

Going from O=[N+]([O-])c1ccc(SCCc2c[nH]cn2)nc1 [Example 107, 2-{2-[1H-Imidazol-4-yl]ethylthio}-5-nitropyridine] to O=[N+]([O-])c1ccc(OCCc2c[nH]cn2)cc1 [Example 110, 4-[2-(4-Nitrophenoxy)ethyl]-1H-imidazole], the Ki rises from 4.8 ± 0.9 nM to 35 ± 6 nM (7.3-fold).

Going from O=C(Nc1ccc(F)cc1)OCCCc1c[nH]cn1 [Example 73, 3-(1H-Imidazol-4-yl)propyl N-(4-fluorophenyl)carbamate] to O=C(NCc1ccc([N+](=O)[O-])cc1)OCCCc1c[nH]cn1 [Example 67, 3-(1H-Imidazol-4-yl)propyl N-(4-nitrobenzyl)carbamate], the Ki falls from 24 ± 4 nM to 15 nM (1.6-fold).

c1nc(CCCOCCCC2CCCCC2)c[nH]1 [Example 36, 3-Cyclohexylpropyl 3-(1H-imidazol-4-yl)propyl ether] and CCCc1ccc(OCCc2c[nH]cn2)cc1 [Example 117, 4-[2-(4-Propylphenoxy)ethyl]-1H-imidazole] are within error of each other in Ki: 20 ± 8 nM for the first, 19 ± 9 nM for the second.

same assay, conditions: read-out: Inhibition of release by exogenous histamine

Molecule NCCc1c[nH]cn1 [histamine, reference compound] has an inhibition at 1 µM of about 50%.
